# According to US20240285670A1, “THERAPEUTIC TREATMENT OF TUMORS BY BLOCKING THE HEME SYNTHESIS-EXPORT AXIS” (Università degli Studi di Torino, priority 2021, published 2024):
# System: SKCO1 cells
# Assay: Activity of mitochondrial ETC complexes I-IV in SKCO1 cells
# Assay type: cell-based, human
# Conditions: FLVCR1a-silenced vs scramble shRNA SKCO1 cells
# Excerpt: (A, C, E) Activities of the mitochondrial electron transport chain complexes I-IV. FLVCR1a-silenced Caco2 (A), SKCO1 (C) or C80 cells (E) are compared to cells expressing a scramble shRNA. Results were expressed as nmol NAD^+/min/mg mitochondrial protein for complex I, nmol reduced cytochrome c/min/mg mitochondrial protein for complexes II-III, nmol oxidized cytochrome c/min/mg mitochondrial protein for complex IV. Data represent mean±SEM, n=3. For statistical analyses, an unpaired Student's t-test was used; *=p<0.05, **=p<0.01. (B, D, F) Mitochondrial ATP levels measured by a bioluminescent assay kit. FLVCR1a-silenced Caco2 (B), SKCO1 (D) or C80 cells (F) are compared to cells expressing a scramble shRNA. Results are expressed as nmol/mg mitochondrial proteins. Data represent mean±SEM, n=3. […] Results were expressed as nmol NAD^+/min/mg mitochondrial protein for complex I, nmol reduced cytochrome c/min/mg mitochondrial protein for complexes II-III, nmol oxidized cytochrome c/min/mg mitochondrial protein for complex IV. […] (H) Mitochondrial ATP levels measured by a bioluminescent assay kit in Caco2 cells overexpressing FLVCR1a (indicated as FLVCR1a+) compared to cells stably transduced with an empty vector. Results are expressed as nmol/mg mitochondrial proteins. […]
# The activity of mitochondria respiration complexes was measured according to (Wibom et al., 2002).
substance,measurement,value
"FLVCR1a shRNA: shRNA specifically down-regulating FLVCR1a without targeting FLVCR1b; pLKO.1 lentiviral clone TRCN0000059599, antisense SEQ ID No.: 2 (antisense TTGCTAATGATGCTGTACTGG; sense CCAGTACAGCATCATTAGCAA)",ETC complexes activity,increased ETC complexes activity
